Entries after “also recorded” stand apart in the source; their conditions may differ. Where two headings read alike, the source gives them in different places.

This note sets out measurements from patent publication US20250090562A1, “METHODS, COMPOSITIONS AND USES RELATED TO THE TREATMENT AND PREVENTION OF LEIGH’S SYNDROME” (Stealth BioTherapeutics Inc., priority 2023, published 2025).

Series [1] can be described thus: Compound 4 pharmacokinetics and tissue exposure, five daily subcutaneous doses, mice. It counts as in vivo, C57BL/6 mice. The procedure:
• Animals were allowed to acclimate to the test facility for at least two days prior to the beginning of the study. • Study animals were male C57BL/6 mice weighing approximately 18-25 grams each. • Fasting was not required for the study. • Body weights were recorded prior to dose administration. The volume of each dose delivered (mL/kg) was based on each individual animal's body weight. • This was a multiple dose serial PK dosed subcutaneously once daily over 5 days. Compound 4 was administered to two groups: Group 1 at 60 mg/kg and Group 2 at 180 mg/kg (6 and 18 mg/mL, 15% Kolliphor ELP in PBS, 10 mL/kg; N=3/group). Serial PK timepoints were collected following the 5th and final dose.
• Serial blood samples were collected via tail vein snip. • Blood samples were collected into tubes with anticoagulant. Tubes were stored on wet ice until processed to plasma by centrifugation (3500 rpm at 5° C. for 10 minutes) within 20 minutes of collection. Sample aliquots of 20 μL were transferred into individual uniquely labeled matrix tubes and stored at nominal −80° C. until transferred to analytical chemistry for analysis. • Immediately following each terminal blood collection for all groups, animals were sacrificed and perfused with cold PBS. Heart and brain tissues were collected. • Perfusion methodology: The chest was opened lengthwise using scissors to expose the thoracic organs. A scalpel was used to cut a small hole into the left ventricle just large enough to insert a cannula tip. The cannula was attached to an appropriately sized tubing and syringe prefilled with cold PBS and primed to remove any air. The tip of the cannula was inserted into the left ventricle and directed into the ascending aorta. Hemostats were used to help keep the cannula in place during perfusion. A second hole was made in the right atrium to allow for the escape of fluid during the return circulation. The syringe attached to the cannula was manually pushed or placed into a pump programmed to infuse at 10 mL/min. Animals were perfused for a minimum of 3 minutes or more if needed (until the exiting fluid was clear).
• N=3/group; • Collections relative to the final dose: • Plasma: 60 mg/kg at 2 and 24 hr; 180 mg/kg at predose, 2, 8, and 24 hr • Heart and Brain: 24 hr (terminal, PBS-perfused); • RGA 2 bioanalysis. […]

Series [2] has as its system 15-lipoxygenase (15-LO). Kind of series: 15(S)-HETE ELISA following erastin treatment, healthy fibroblasts. The format is cell-based, human. To be noted: erastin + FAC + AA, 1 μM compound, 24 h. The procedure: (§1) Samples for the 15(S)-HETE ELISA were generated by the Erastin Assay described above. Healthy or Leigh fibroblasts were resuspended in assay medium, seeded at 200,000 cells/well in a clear, tissue culture-treated, 24-well plate, and incubated at 37° C. for 24 hours. Supernatant was aspirated from each well.
(§2) Ferroptosis was induced using erastin at 2 μM concentration. 15(S)-HETE, which is a metabolite of arachidonic acid and generated by activity of 15-LO, was measured using a commercially available ELISA kit. Data were normalized to the “No treatment” group, which represented fibroblasts that were not injured with erastin.

The test system of series [3] is 15-lipoxygenase (15-LO). Kind of series: 15(S)-HETE ELISA following erastin treatment, Leigh fibroblasts. The format is cell-based, human. To be noted: erastin + FAC + AA, 1 μM compound, 24 h. The procedure: as §1, §2
Background: In an ELISA, binding on a coated surface is turned into a signal by an enzyme label.

Series [4] is classed as in vivo. To be noted: rat, single dose 1 mg/kg IV, 10 mg/kg SC or 10 mg/kg PO. The procedure:
• Animals: Rat/Sprague Dawley/Male/Naive 225-250 grams were received from an approved vendor. • Animals were fasted overnight prior to dose administration. Food was returned following the 2 hour sample collection. • Body weights were recorded prior to dose administration. The volume of each dose delivered (ml/kg) was based on each individual animal's body weight. • This was a single dose, serial blood collection study with tissues collected for possible future analysis. • Doses were administered in accordance with test facility standard operating procedures. […].
• Blood samples were collected via jugular vein catheter (JVC) and transferred to tubes with appropriate anticoagulant. The tubes were stored on wet ice until processed to plasma by centrifugation (3500 rpm at 5° C. for 10 minutes) within 20 minutes of collection. Sample aliquots of 100 μL were transferred into individual uniquely labeled matrix tubes containing 10 μL of 5% (v/v) formic acid aqueous solution and stored at nominal −80° C. until analyzed by LC/MS/MS. • Immediately following final serial blood collection (24 hours, JVC), animals were sacrificed and perfused with cold PBS. […]

The nature of series [5]: Pharmacokinetics of Compound 3, repeated (5 days) subcutaneous dose, rats. The format is in vivo, Sprague Dawley rats. On the procedure: • Animals: Rat/Sprague Dawley/Male/Naive 225-250 grams were received from an approved vendor. • Fasting was not required for this study. • Body weights were recorded prior to dose administration. The volume of each dose delivered (mL/kg) was based on each individual animal's body weight. • This was a multiple dose terminal study dosed once per day over 5 days. Rats were taken down following their 5th and final dose. • Doses were administered in accordance with test facility standard operating procedures. […] Any abnormalities were recorded. • Pre-formulated Compounds 3 was provided by Study sponsor ready to be dosed for each day in accordance with the Study Design set forth in Table 3, below.
• Terminal blood samples were collected via cardiac puncture following inhalation anesthesia in accordance with test facility standard operating procedures. • Blood samples were collected into tubes with appropriate anticoagulant. Tubes were stored on wet ice until processed to plasma by centrifugation (3500 rpm at 5° C. for 10 minutes) within 20 minutes of collection. Sample aliquots of 100 μL were transferred into individual uniquely labeled matrix tubes and stored at nominal −80° C. until transferred to analytical chemistry for analysis. • Immediately following each terminal blood collection for all groups, animals were sacrificed and perfused with cold PBS. […]

The mark [6] stands for this setting: male, C57BL/6, mouse, in vivo, sc.
[7] abbreviates: male, C57BL/6, mouse, in vivo, sc, 60 mg/kg.
[8] abbreviates: male, C57BL/6, mouse, in vivo, sc, 60 mg/kg, 24 h.
The mark [9] stands for this setting: male, C57BL/6, mouse, in vivo, sc, 180 mg/kg.
[10] abbreviates: male, C57BL/6, mouse, in vivo, sc, 180 mg/kg, 24 h.

As a reminder, the AUC(0-t) is exposure summed from dosing to a finite time, without extrapolation to infinity. As usually defined, the Cmax is the peak of the concentration-time curve. The Tmax is the time at which the peak concentration occurs. For `CC1=C(C)C(=O)C(CC[C@](C)(O)CCCCCCCCC(F)(F)F)=C(C)C1=O` [Compound 4], the tolerability result in series [1] (60 and 180 mg/kg SC over 5 days, 10 mL/kg QD, 15% Kolliphor ELP in PBS) is on record as “well tolerated”. For the same molecule, in series [1] (male, C57BL/6, mouse, in vivo, 180 mg/kg, 24 h), the “Geomean C24” value is 602 ng/g. In addition, the concentration at 24 h was found to be 514 ng/g in series [1] (male, C57BL/6, mouse, in vivo, 180 mg/kg, Geomean C24); 192 ng/g in series [1] (male, C57BL/6, mouse, in vivo, sc, 60 mg/kg, Concentration in C57BL/6 Mouse Tissue, Geomean); 212 ng/g in series [1] (male, C57BL/6, mouse, in vivo, sc, 60 mg/kg, Concentration in C57BL/6 Mouse Tissue, Mean); 266 ng/mL in series [1] (male, C57BL/6, mouse, in vivo, sc, 180 mg/kg, C24); 514 ng/g in series [1] (male, C57BL/6, mouse, in vivo, sc, 180 mg/kg, Concentration in C57BL/6 Mouse Tissue, Geomean); 529 ng/g in series [1] (male, C57BL/6, mouse, in vivo, sc, 180 mg/kg, Concentration in C57BL/6 Mouse Tissue, Mean). For the same molecule, the time to steady-state in series [1] (setting [6]) was not above 5 days. Also, the AUC(0-t) was 15400 ng·h/mL in series [1] (setting [7]) and 49100 ng·h/mL in series [1] (setting [9]). Besides, the figures for the AUClast/Dose in series [1] (setting [7]) and in series [1] (setting [9]) were 257 kg·ng·h/mL/mg and 273 kg·ng·h/mL/mg, respectively. The Cmax in series [1] (setting [7]) was 1440 ng/mL; in series [1] (male, C57BL/6, mouse, in vivo, sc, 60 mg/kg, Cmax), 1810 ng/mL; in series [1] (male, C57BL/6, mouse, in vivo, sc, 180 mg/kg, Cmax) it was 4800 ng/mL. The “Concentration in C57BL/6 Mouse Tissue, Geomean” value is reported as 225 ng/g in series [1] (setting [8]) and 602 ng/g in series [1] (setting [10]). Further, the figures for the “Concentration in C57BL/6 Mouse Tissue, Mean” value in series [1] (setting [8]) and in series [1] (setting [10]) were 226 ng/g and 635 ng/g, respectively. Further, in series [1] (setting [9]), the Cmax/Dose is 26.7 kg·ng/mL/mg. This molecule came in with a C24/Dose in series [1] (setting [10]) of 1.48 kg·ng/mL/mg. The figures for the Tmax in series [1] (setting [9]) and in series [1] (setting [6]) were 2 h and 0.5 to 2 h, respectively. In series [1] (mouse, in vivo), the “plasma exposure versus dose” value was “approximately proportional to dose”. Moreover, in series [1] (mouse, in vivo), the “tissue C24 (trough) exposure versus dose” value is recorded as “approximately proportional to dose”.
Consider `CC1=C(C)C(=O)C(CC[C@@](C)(O)CC/C=C(\C)CCC=C(F)F)=C(C)C1=O` [Compound 2], for which the “relative 15-LO inhibition (comparison between test articles)” value in the series with 15-lipoxygenase (15-LO) [2] and in the series with 15-lipoxygenase (15-LO) [3] was “slightly less effective” each time. Also, in series [4], the tolerability result is “well tolerated”. Further, the “delivery by mode of administration” value in series [4] (preliminary) was “effectively administered”.
On to `CC1=C(C)C(=O)C(CC[C@@](C)(O)COCCC[Si](C)(C)C)=C(C)C1=O` [Compound 3], for which, in series [5] (20 mg/kg SC in mouse versus 10 mg/kg SC in rat (60 mg/m^2)), the “plasma uptake and clearance across species (mouse versus rat)” value is “roughly equivalent; also recorded: scales well by allometry”. Besides, in series [5] (rat, 10 mg/kg SC once per day for 5 days), the tolerability entry was “well tolerated”.
